Activity calls are given as the source filed them. The rule behind the calls is not given here.
Key:
[1] = system: Middle East respiratory syndrome-related coronavirus; assay: Antiviral activity against MERS-CoV EMC/2012 infected in African green monkey Vero cells pretreated with compound followed by viral infection and measured at 72 hrs post-infection by MTS assay; assay type: functional, organism-based
[2] = system: SARS-CoV; assay: Antiviral activity against SARS-CoV Frankfurt1 infected in African green monkey Vero E6 cells pretreated with compound followed by viral infection and measured at 72 hrs post-infection by MTS assay; assay type: functional, organism-based; conditions: Severe acute respiratory syndrome-related coronavirus; Frankfurt 1; Vero C1008
[3] = system: Chikungunya virus; assay: Antiviral activity against CHIKV LS3 infected in African green monkey Vero E6 cells assessed as reduction in virus-induced cytopathic effect pretreated with compound followed by viral infection and measured at 96 hrs post-infection by MTS assay; assay type: functional, organism-based; conditions: LS3, Vero C1008
[4] = system: Zika virus; assay: Antiviral activity against ZIKV SL0612 infected in African green monkey Vero CCL81 cells pretreated with compound followed by viral infection and measured at 96 hrs post-infection by MTS assay; assay type: functional, organism-based
[5] = system: Vero C1008; assay: Cytotoxicity against African green monkey Vero E6 cells assessed as reduction in cell viability measured after 96 hrs by MTS assay; assay type: cell-based; conditions: chlorocebus sabaeus, vero c1008, 96 h
[6] = biological target: Adenosylhomocysteinase (Homo sapiens, UniProt P23526); assay: Inhibition of human placental SAH hydrolase expressed in Escherichia coli JM109 using SAH as substrate preincubated for 10 mins followed by SAH addition and measured after 20 mins by DNTB reagent-based spectrophotometric method
Adenosylhomocysteinase, sequence (P23526 whole entry): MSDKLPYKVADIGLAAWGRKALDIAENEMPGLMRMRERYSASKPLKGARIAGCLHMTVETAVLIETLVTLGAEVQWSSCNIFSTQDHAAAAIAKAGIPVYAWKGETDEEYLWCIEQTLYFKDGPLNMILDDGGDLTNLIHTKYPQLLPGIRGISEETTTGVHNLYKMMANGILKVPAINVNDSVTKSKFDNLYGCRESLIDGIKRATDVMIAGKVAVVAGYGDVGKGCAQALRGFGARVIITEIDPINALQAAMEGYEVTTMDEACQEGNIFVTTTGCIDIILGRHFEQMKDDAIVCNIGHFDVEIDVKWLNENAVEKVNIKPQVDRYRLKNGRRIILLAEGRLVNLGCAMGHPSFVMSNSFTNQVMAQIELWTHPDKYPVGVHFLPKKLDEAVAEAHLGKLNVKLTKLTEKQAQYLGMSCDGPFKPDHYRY

[7] = Selectivity index, ratio of CC50 for African green monkey Vero E6 cells to EC50 for antiviral activity against CHIKV-LS3 infected in African green monkey Vero E6 cells; assay type: toxicity, Vero C1008; conditions: read-out: Ratio CC50/EC50

Structure (SMILES)	Activity [1]	Activity [2]	EC50 [3]	Activity [4]	CC50 [5]	IC50 [6]	selectivity ratio [7]
Nc1ncnc2c1ncn2[C@H]1[C@H](O)[C@H](O)[C@@H](CO)C1(F)F	Active	Active	0.13 µM	Active	> 1.25 µM		
Nc1ncnc2c1ncn2[C@H]1[C@H](O)[C@H](O)[C@@H](CCO)C1(F)F	inactive	inactive	> 100 µM	inactive	> 25 µM	2.03 µM	
CNc1ncnc2c1ncn2[C@H]1[C@H](O)[C@H](O)[C@@H](CCO)C1(F)F	inactive	inactive	> 100 µM	inactive	> 100 µM	3.05 µM	
Nc1ncnc2c1ncn2[C@H]1[C@H](O)[C@H](O)[C@@H](CO)[C@H]1F	Active	Active	> 100 µM	Active	> 100 µM		
OCC[C@@H]1[C@@H](O)[C@@H](O)[C@H](n2cnc3c(O)ncnc32)[C@@H]1F	inactive	inactive	> 100 µM	inactive	> 100 µM	> 100 µM	
Nc1ncnc2c1ncn2[C@H]1[C@H](O)[C@H](O)[C@@H](CCO)[C@H]1F	inactive	inactive	0.12 µM	inactive	> 250 µM	0.36 µM	> 2080
CNc1ncnc2c1ncn2[C@H]1[C@H](O)[C@H](O)[C@@H](CCO)[C@H]1F	inactive	inactive	> 100 µM	inactive	> 100 µM	0.37 µM	
